Test results reported in patent US3954972A, “Antibiotic A-26771 factor” (Eli Lilly and Company, priority 1975, dated 1976).
Entries after “also recorded” stand apart in the source; their conditions may differ. Where two headings read alike, the source gives them in different places.

Key:
Klebsiella pneumoniae = assay: microbe, parasite or virus in culture; format: cell-based
Candida albicans = assay: microbe, parasite or virus in culture; format: cell-based
Type III poliovirus = assay: microbe, parasite or virus in culture; format: cell-based
Mycobacterium avium = assay: disc-plate assay, Mycobacterium avium; format: cell-based
[1] = tested on: Coxsackie virus A-21 (COE strain); assay: microbe, parasite or virus in culture; format: cell-based; details: read-out: diameter of zone of virus inhibition
Sarcina lutea = assay: microbe, parasite or virus in culture; format: cell-based; details: Micrococcus luteus
Bacillus subtilis = assay: microbe, parasite or virus in culture; format: cell-based
Escherichia coli = assay: microbe, parasite or virus in culture; format: cell-based
Staphylococcus aureus [2] = assay: microbe, parasite or virus in culture; format: cell-based
[3] = tested on: several viruses, including polioviruses and Coxsackie virus; format: cell-based
White Swiss mice = assay: survival of mice after intraperitoneal injection; details: groups of four mice
[4] = tested on: Trichophyton mentagrophytes; assay: microbe, parasite or virus in culture; format: cell-based
Serratia marcescens = assay: microbe, parasite or virus in culture; format: cell-based
Neurospora crassa = assay: microbe, parasite or virus in culture; format: cell-based
[5] = tested on: Saccharomyces pastorianum; assay: microbe, parasite or virus in culture; format: cell-based
poliovirus III = format: in vivo, mice; details: for Z (zone diameter of viral inhibition by serum): BSC1 cells
Fusarium moniliforme = assay: microbe, parasite or virus in culture; format: cell-based; details: Fusarium verticillioides
electrometric titration = format: physicochemical; details: 66 percent dimethylformamide
Ceratocystis ulmi = assay: in vitro susceptibility (MIC), Ceratocystis ulmi; format: cell-based
Mycoplasma hyopneumoniae = assay: microbe, parasite or virus in culture; details: Mesomycoplasma hyopneumoniae
Streptococcus faecalis = assay: microbe, parasite or virus in culture; details: Enterococcus faecalis
[6] = tested on: Trichophyton mentagrophytes; assay: microbe, parasite or virus in culture
Mycoplasma synoviae = assay: microbe, parasite or virus in culture; details: Mycoplasmopsis synoviae
Verticillium albo-atrum = assay: in vitro susceptibility (MIC), Verticillium albo-atrum; format: cell-based
Mycoplasma hyosynoviae = assay: microbe, parasite or virus in culture
Candida tropicalis = assay: microbe, parasite or virus in culture
Staphylococcus aureus [7] = assay: microbe, parasite or virus in culture
Mycoplasma granularum = assay: microbe, parasite or virus in culture; details: Acholeplasma granularum
Pasteurella multocida = assay: microbe, parasite or virus in culture
Botrytis cinerea = assay: in vitro susceptibility (MIC), Botrytis cinerea; format: cell-based
Mycoplasma gallisepticum = assay: microbe, parasite or virus in culture; details: Mycoplasmoides gallisepticum
Erwinia amylovora = assay: microbe, parasite or virus in culture
Xanthomonas phaseoli = assay: microbe, parasite or virus in culture
Vibrio coli = assay: microbe, parasite or virus in culture; details: Campylobacter coli
[8] = Enterovirus C, read-out: diameter of zone of virus inhibition
[9] = 29 mg./kg. intraperitoneal, One Hour
[10] = 29 mg./kg. intraperitoneal, Six Hours
[11] = 58 mg./kg. intraperitoneal, One Hour
[12] = 58 mg./kg. intraperitoneal, Six Hours
[13] = 117 mg./kg. intraperitoneal, One Hour
[14] = 234 mg./kg. intraperitoneal, One Hour
[15] = Enterovirus C; read-out: diameter of zone of virus inhibition

CN1C(=O)C2(Cc3ccccc3)SSC1(CO)C(=O)N2C (single isomer, unassigned) [Factor A, 3-benzyl-6-(hydroxymethyl)-1,4-dimethyl-3,6-epidithio-2,5-piperazinedione]
zone of inhibition at 1000 µg/mL (Klebsiella pneumoniae): 12 mm | zone of inhibition at 1000 µg/mL (Candida albicans): 28 mm | zone of inhibition at 1.5 µg/mL (Type III poliovirus; [8]): 16 mm | zone of inhibition at 3.2 µg/mL (Type III poliovirus; [8]): 24 mm | zone of inhibition at 7.5 µg/mL (Type III poliovirus; [8]): 30 mm | zone of inhibition at 15 µg/mL (Type III poliovirus; [8]): 34 mm | zone of inhibition at 31.1 µg/mL (Type III poliovirus; [8]): 38 mm | zone of inhibition at 62.2 µg/mL (Type III poliovirus; [8]): 40 mm | zone of inhibition at 125 µg/mL (Type III poliovirus; [8]): 44 mm | zone of inhibition at 250 µg/mL (Type III poliovirus; [8]): 46 mm | zone of inhibition at 500 µg/mL (Type III poliovirus; [8]): 50 mm | zone of inhibition at 1000 µg/mL (Type III poliovirus; [8]): 50 mm | zone of inhibition at 1000 µg/mL (Mycobacterium avium): 14 mm | zone of inhibition at 1.5 µg/mL [1]: 15 mm | zone of inhibition at 3.2 µg/mL [1]: 20 mm | zone of inhibition at 7.5 µg/mL [1]: 26 mm | zone of inhibition at 15 µg/mL [1]: 32 mm | zone of inhibition at 31.1 µg/mL [1]: 35 mm | zone of inhibition at 62.2 µg/mL [1]: 38 mm | zone of inhibition at 125 µg/mL [1]: 40 mm | zone of inhibition at 250 µg/mL [1]: 45 mm | zone of inhibition at 500 µg/mL [1]: 50 mm | zone of inhibition at 1000 µg/mL [1]: 52 mm | zone of inhibition at 100 µg/mL (Sarcina lutea): 18 mm | zone of inhibition at 1000 µg/mL (Sarcina lutea): 28 mm | zone of inhibition at 100 µg/mL (Bacillus subtilis): 11 mm | zone of inhibition at 1000 µg/mL (Bacillus subtilis): 22 mm | zone of inhibition at 1000 µg/mL (Escherichia coli): 12 mm | zone of inhibition at 100 µg/mL (Staphylococcus aureus [2]): 12 mm | zone of inhibition at 1000 µg/mL (Staphylococcus aureus [2]): 23 mm | antiviral activity ([3]; tissue culture): demonstrated against several viruses, including polioviruses and Coxsackie virus; also recorded: antiviral agents; also recorded: antiviral activity | Survivors (White Swiss mice; [9]): 4 | Survivors (White Swiss mice; [10]): 4 | Survivors (White Swiss mice; [11]): 4 | Survivors (White Swiss mice; [12]): 4 | Survivors (White Swiss mice; [13]): 4 | Survivors (White Swiss mice; 117 mg./kg. intraperitoneal, Six Hours): 0 | Survivors (White Swiss mice; [14]): 4 | Survivors (White Swiss mice; 234 mg./kg. intraperitoneal, Six Hours): 0 | zone of inhibition at 100 µg/mL [4]: 19 mm | zone of inhibition at 1000 µg/mL [4]: 27 mm | zone of inhibition at 1000 µg/mL (Serratia marcescens): 14 mm | zone of inhibition at 100 µg/mL (Neurospora crassa): 13 mm | zone of inhibition at 1000 µg/mL (Neurospora crassa): 27 mm | zone of inhibition at 100 µg/mL [5]: 19 mm | zone of inhibition at 1000 µg/mL [5]: 32 mm | Z (zone diameter of viral inhibition by serum) (poliovirus III; [9]): 20 millimeters | Z (zone diameter of viral inhibition by serum) (poliovirus III; [10]): 18 millimeters | Z (zone diameter of viral inhibition by serum) (poliovirus III; [11]): 24 millimeters | Z (zone diameter of viral inhibition by serum) (poliovirus III; [12]): 23 millimeters | Z (zone diameter of viral inhibition by serum) (poliovirus III; [13]): 29 millimeters | Z (zone diameter of viral inhibition by serum) (poliovirus III; [14]): 30 millimeters | antiviral activity in vivo (poliovirus III; biological activity of serum levels in mice): demonstrated in vivo from the biological activity of serum levels in mice | zone of inhibition at 100 µg/mL (Fusarium moniliforme): 10 mm | zone of inhibition at 1000 µg/mL (Fusarium moniliforme): 14 mm | titratable groups (electrometric titration): did not indicate the presence of titratable groups

CC1CCCCCCCCCC(OC(=O)CCC(=O)O)C(=O)/C=C/C(=O)O1 (centres unmarked) [Factor B, mono(16-methyl-2,5-dioxooxacyclohexadec-3-en-6-yl) succinate]
MIC (Ceratocystis ulmi): 6.25 µg/mL | MIC (Mycoplasma hyopneumoniae): 12.5 µg/mL | MIC (Streptococcus faecalis): 25 µg/mL | MIC [6]: 6.25 µg/mL | MIC (Mycoplasma synoviae): 12.5 µg/mL | MIC (Verticillium albo-atrum): 50 µg/mL | MIC (Mycoplasma hyosynoviae): 12.5 µg/mL | zone of inhibition at 100 µg/mL (Sarcina lutea): 12 mm | zone of inhibition at 1000 µg/mL (Sarcina lutea): 22 mm | MIC (Candida tropicalis): 100 µg/mL | zone of inhibition at 1000 µg/mL (Bacillus subtilis): 14 mm | MIC (Staphylococcus aureus [7]): < 1.56 µg/mL | MIC (Mycoplasma granularum): 50 µg/mL | zone of inhibition at 100 µg/mL (Staphylococcus aureus [2]): 15 mm | zone of inhibition at 1000 µg/mL (Staphylococcus aureus [2]): 24 mm | MIC (Pasteurella multocida): 6.25 µg/mL | MIC (Botrytis cinerea): 12.5 µg/mL | zone of inhibition at 1000 µg/mL [4]: 14 mm | zone of inhibition at 1000 µg/mL (Neurospora crassa): 13 mm | zone of inhibition at 100 µg/mL [5]: 12 mm | zone of inhibition at 1000 µg/mL [5]: 25 mm | MIC (Mycoplasma gallisepticum): 3.12 µg/mL | MIC (Erwinia amylovora): < 0.78 µg/mL | MIC (Xanthomonas phaseoli): 50 µg/mL | MIC (Vibrio coli): 50 µg/mL

CN1C(=O)C2(Cc3ccccc3)SSSSC1(CO)C(=O)N2C (centres unmarked) [Factor C, 3-benzyl-6-(hydroxymethyl)-1,4-dimethyl-3,6-epitetrathio-2,5-piperazinedione]
zone of inhibition at 100 µg/mL (Type III poliovirus; [15]): 40 mm | zone of inhibition at 1000 µg/mL (Type III poliovirus; [15]): 50 mm | zone of inhibition at 100 µg/mL [1]: 40 mm | zone of inhibition at 1000 µg/mL [1]: 50 mm | antiviral activity [3]: demonstrated against several viruses, including polioviruses and Coxsackie virus; also recorded: antiviral agents; also recorded: antiviral activity
